In US20120264804A1, “T TYPE CALCIUM CHANNEL BLOCKERS AND THE TREATMENT OF DISEASES” (University of Virginia Patent Foundation, priority 2004, published 2012):
Where two headings read alike, the source gives them in different places.

Legend:
[1] = test system: PC3 human prostate cancer cells; test: Proliferation of PC3 prostate cancer cells (CellTiter 96); assay type: cell-based; conditions: read-out: IC50 for inhibiting proliferation of PC3 prostate cancer cells
Method: FIG. 5, TH-1177 and TH-1211 are stereoisomers about one of two chiral centers and have different potencies at inhibiting the proliferation of PC3 prostate cancer cells. Panel A: The structures of TH-1177 and TH-1211 were determined as described in Materials and Methods. The diastereomers are racemic at the benzhydrol center (solid arrows) and enantiomeric at the proline center (open arrows) with TH-1177 having the S configuration and TH-1211 having the R. Panel B: The proliferation of PC3 human prostate cancer cells was determined as described in Materials and Methods.
(§1) LNCaP cells at 2.5×10^4 cells/well or PC-3 cells at 5×10^4 cells/well, both in a final volume of 100 IJI, were plated in triplicate in standard flat-bottomed 96-well tissue culture plates in the presence of drug or vehicle (DMSO). Unless otherwise indicated, cells were grown for 48 h at 37° C. in a CO2 incubator. Relative cell growth was determined with the CellTiter 96 aqueous cell proliferation assay (Promega, Madison, Wis.) as described by the manufacturer using an automated plate reader. Results were calculated in a blinded fashion and are the means of triplicate determinations.

Jurkat cells = test: Proliferation of Jurkat cells with or without ionomycin; assay type: cell-based, human; conditions: for IC50: Homo sapiens, Jurkat cells, 48 hrs
Method: FIG. 2. The Ca2+ ionophore ionomycin overcomes the inhibition of Ca2+ entry into and proliferation of Jurkat cells produced by TH-1177. Panel A. Ca2+ entry into Jurkat cells was determined as described in Materials and Methods. Ionomycin at the indicated concentrations was added at 30 s and the mitogenic monoclonal antibody (OKT3 was added at a concentration of 1 ug/ml at 60 s. Either EGTA at 2.5 mM or TH-1177 at the indicated concentrations was added at 150 s. The percentage inhibition was determined as described in Material and Methods. Panel B. Jurkat cells were grown for 48 hrs in the presence (open symbols) or absence (closed symbols) of 30 nM ionomycin and the indicated concentrations of TH-1177. Percent control growth was determined as described in Materials and Methods.
as §1

[2] = test system: xenografted human PC3 prostate cancer cells; conditions: treatment with TH-1177; Haverstick et al. 2000; cited from earlier work

Compound	IC50 [1] [µM]	effect on proliferation of ionomycin alone (Jurkat cells; 30 nM ionomycin alone)	lifespan of mice bearing xenografted PC3 cells [2]	IC50 (Jurkat cells; in the presence of 30 uM ionomycin, read-out: IC50 of TH-1177 for inhibition of proliferation, in the presence of ionomycin) [µM]	IC50 (Jurkat cells; ionomycin absent, read-out: IC50 of TH-1177 for inhibition of proliferation, in the absence of ionomycin) [µM]
COc1ccc(CCN2CCCC2COC(c2ccccc2)c2ccc(Cl)cc2)cc1 (stereo not drawn) [TH-1211]	42				
C[C@H](CCC(=O)O)C[C@H](C)C[C@H](C)C(=O)/C=C(\O)[C@H](C)C[C@H](C)C/C=C/[C@@H](C)[C@@H](O)[C@@H](C)[C@@H](O)C[C@@H]1CC[C@@](C)([C@H]2CC[C@@](C)([C@@H](C)O)O2)O1 [ionomycin, reference compound]		no effect			
COc1ccc(CCN2CCCC2COC(c2ccccc2)c2ccc(Cl)cc2)cc1 (stereo not drawn) [TH-1177]	14		significantly extended the lifespan	4.6	17.8
